The values below come from ChEMBL document CHEMBL2021890, “A new class of prolylcarboxypeptidase inhibitors, part 1: discovery and evaluation” (Bioorg Med Chem Lett, 2012).

The target of series [1] is Mus musculus. The series is described as follows: Ex-vivo inhibition of po dosed mouse PrCP in the absence of plasma by FRET analysis. It counts as functional, organism-based.
Series [2] addresses Mus musculus. The series can be described thus: Ex-vivo inhibition of PrCP in heat inactivated 25% plasma of po dosed mouse by FRET analysis. It is filed as functional, organism-based.
Series [3] deals with Mus musculus. The series can be described thus: Ex-vivo inhibition of PrCP in heat inactivated 100% plasma of po dosed mouse by FRET analysis. It is filed as functional, organism-based.
Series [4] has as its system Mus musculus. The series can be described thus: Plasma shift, ratio of Ki for PrCP in heat inactivated 100% plasma of po dosed mouse to Ki for po dosed mouse PrCP in the absence of plasma. It is filed as functional.
Series [5] can be described thus: Drug uptake in C57 mouse plasma at 100 mg/kg, po after 20 hrs by LC/MS analysis. Details: dose 100 mg/kg, route oral. It is filed as ADME, organism-based.
The nature of series [6]: Drug uptake in C57 mouse brain at 100 mg/kg, po after 20 hrs by LC/MS analysis. The note with it: read-out: Drug uptake. Details: dose 100 mg/kg, route oral. It counts as ADME, organism-based.
Series [7] in a line: Ratio of drug level in brain to plasma in C57 mouse at 100 mg/kg, po after 20 hrs by LC/MS analysis. It counts as ADME, organism-based. The arrangement: dose 100 mg/kg, route oral. The conditions noted are these: read-out: BPR.
The test system of series [8] is Mus musculus. The series can be described thus: Ex-vivo inhibition of PrCP in heat inactivated 100% plasma of C57 mouse assessed as target engagement at 100 mg/kg, po after 20 hrs by FRET analysis. It counts as functional.
For series [9], the system named is Mus musculus. The series is described as follows: Ex-vivo inhibition of PrCP in heat inactivated 100% plasma of C57 mouse assessed as target engagement at 100 mg/kg, po after 20 hrs calculated as [cmpd]plasma/([cmpd]plasma + Ki (heat inactivated plasma))x100. It is filed as functional.
A short description of series [10]: Apparent permeability across pig LLC-PK1 cells at 5 uM. It is filed as ADME, cell-based, Sus scrofa.
Series [11] in a line: Ratio of apparent permeability from basolateral to apical side over apical to basolateral side in […] LLC cells expressing human MDR1 at 5 uM. It is filed as ADME, cell-based.
The nature of series [12]: Ratio of apparent permeability from basolateral to apical side over apical to basolateral side in […] LLC cells expressing […] MDR1a at 5 uM. It is filed as ADME, cell-based.

Regarding `C[C@@H](c1ccc(-c2ccccc2)cc1)[C@H](NC(=O)C(C)(C)N)C(=O)N1CCC[C@H]1c1nc2cc(Cl)c(Cl)cc2[nH]1`, the Ki was 0.7 nM on Mus musculus [1], 4.6 nM on Mus musculus [2] and 16.3 nM on Mus musculus [3]. In addition, the “Ratio Ki” value with Mus musculus [4] turned out to be 23.3. In addition, the values for the concentration at 20 h in series [5] and in series [6] were 3120 nM and 757 nM, respectively. In addition, the Kp at 20 h in series [7] was 0.24. Further, the figures for the inhibition in vivo at 100 mg/kg in the series with Mus musculus [8] and in the series with Mus musculus [9] were 97.2% and 99.5%, respectively. For the same molecule, the Papp at 5 µM in [10] worked out at 2.3 ×10⁻⁶ cm/s. Moreover, the Ratio in series [11] was determined as 8; in [12], 4.2.
